pEC50: −log10 of the molar value. Entries after “also recorded” stand apart in the source; their conditions may differ. Like-named read-outs stand apart in the source and are kept apart here.
Experiments:
CIT = CIT (Homo sapiens, UniProt O14578); conditions: cited from earlier work
endogenous TFE3 = assay: TFE3 nuclear translocation, immunocytochemistry high-content imaging; format: cell-based; conditions: for TFE3 %: PKIS2 primary screening; for nTFE3 %: primary screen, 1 µM; for nTFE3 % / TFE3 translocation (in words) / pEC50 / EC50 / Best-Fit Values Span: SH-SY5Y; for EC50: TFE3 assay, read-out: Best-Fit Values EC50 (converted); for Best-Fit Values Span: TFE3 assay concentration response; for Summary: activity in TFE3 assays compared with original NK-140, OT activity
PRKD3 = biological target: T1, PRKD3 (Homo sapiens, UniProt O94806); conditions: cited from earlier work
T1 sequence (O94806 1-890): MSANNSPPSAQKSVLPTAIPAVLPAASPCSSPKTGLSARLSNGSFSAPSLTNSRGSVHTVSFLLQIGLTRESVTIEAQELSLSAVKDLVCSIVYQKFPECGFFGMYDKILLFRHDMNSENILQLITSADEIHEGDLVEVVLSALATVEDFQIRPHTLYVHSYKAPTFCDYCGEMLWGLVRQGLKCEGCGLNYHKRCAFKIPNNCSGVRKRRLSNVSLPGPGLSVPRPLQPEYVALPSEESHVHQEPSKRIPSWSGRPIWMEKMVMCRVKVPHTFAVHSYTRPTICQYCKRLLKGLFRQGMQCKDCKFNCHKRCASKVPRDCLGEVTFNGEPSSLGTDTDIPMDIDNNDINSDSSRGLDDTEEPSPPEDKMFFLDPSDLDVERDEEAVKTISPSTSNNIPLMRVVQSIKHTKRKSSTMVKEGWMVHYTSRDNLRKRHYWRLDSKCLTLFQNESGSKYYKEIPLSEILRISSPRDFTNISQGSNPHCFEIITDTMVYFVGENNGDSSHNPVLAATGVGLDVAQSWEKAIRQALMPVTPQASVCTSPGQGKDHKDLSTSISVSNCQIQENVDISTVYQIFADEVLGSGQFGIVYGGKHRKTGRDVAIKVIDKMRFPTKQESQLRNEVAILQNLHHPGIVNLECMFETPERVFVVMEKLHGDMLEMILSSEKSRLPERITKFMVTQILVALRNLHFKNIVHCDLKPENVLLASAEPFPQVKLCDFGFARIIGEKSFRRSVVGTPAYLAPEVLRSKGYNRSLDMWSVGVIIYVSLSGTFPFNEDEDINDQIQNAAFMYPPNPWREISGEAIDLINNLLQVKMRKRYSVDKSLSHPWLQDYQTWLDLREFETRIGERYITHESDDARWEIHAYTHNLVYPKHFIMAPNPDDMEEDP

endogenous TFEB = assay: TFEB nuclear translocation, immunocytochemistry high-content imaging; format: cell-based; conditions: for TFEB %: PKIS2 primary screening; for TFEB translocation (in words): SH-SY5Y
PIKFYVE = PIKFYVE (Homo sapiens, UniProt Q9Y2I7); conditions: cited from earlier work
PRKD1 = biological target: T2, PRKD1 (Homo sapiens, UniProt Q15139); conditions: cited from earlier work
T2 sequence (Q15139 1-912): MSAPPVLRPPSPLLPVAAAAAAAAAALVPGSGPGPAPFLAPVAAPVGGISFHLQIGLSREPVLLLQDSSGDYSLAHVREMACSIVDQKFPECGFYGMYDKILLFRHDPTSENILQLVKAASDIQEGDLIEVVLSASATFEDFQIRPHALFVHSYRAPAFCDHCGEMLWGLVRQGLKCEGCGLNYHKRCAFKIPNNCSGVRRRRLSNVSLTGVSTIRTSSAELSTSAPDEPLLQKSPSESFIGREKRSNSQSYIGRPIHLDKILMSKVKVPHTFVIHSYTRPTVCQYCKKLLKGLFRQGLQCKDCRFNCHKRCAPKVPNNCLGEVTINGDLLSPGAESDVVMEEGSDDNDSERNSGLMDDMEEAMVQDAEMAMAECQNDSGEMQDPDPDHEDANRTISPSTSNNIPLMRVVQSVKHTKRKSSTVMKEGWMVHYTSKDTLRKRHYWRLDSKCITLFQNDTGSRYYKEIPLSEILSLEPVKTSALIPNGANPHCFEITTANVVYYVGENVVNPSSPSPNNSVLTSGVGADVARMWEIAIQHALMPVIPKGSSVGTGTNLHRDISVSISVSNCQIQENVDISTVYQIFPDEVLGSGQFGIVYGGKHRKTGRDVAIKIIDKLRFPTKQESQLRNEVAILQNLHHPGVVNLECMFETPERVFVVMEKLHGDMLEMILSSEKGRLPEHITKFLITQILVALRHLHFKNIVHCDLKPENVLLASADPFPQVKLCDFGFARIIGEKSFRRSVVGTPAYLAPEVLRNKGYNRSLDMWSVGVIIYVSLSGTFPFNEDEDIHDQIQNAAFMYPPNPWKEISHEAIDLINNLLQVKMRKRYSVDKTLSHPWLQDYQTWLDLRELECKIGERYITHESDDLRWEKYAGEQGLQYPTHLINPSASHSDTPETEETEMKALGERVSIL

SH-SY5Y cells = conditions: for DQ Intensity / DQ Spot: PKIS2 primary screening; for DQ Intensity: DQ Red BSA intensity; for DQ Spot: DQ Red BSA spot count
Description: The PKIS2 Library was supplied by The Structural Genomics Consortium at the University of North Carolina at Chapel Hill.

CSNK1D = CSNK1D (Homo sapiens, UniProt P48730); conditions: cited from earlier work
ACVR1B = biological target: T3, ACVR1B (Homo sapiens, UniProt P36896); conditions: cited from earlier work
T3 sequence (P36896 24-505): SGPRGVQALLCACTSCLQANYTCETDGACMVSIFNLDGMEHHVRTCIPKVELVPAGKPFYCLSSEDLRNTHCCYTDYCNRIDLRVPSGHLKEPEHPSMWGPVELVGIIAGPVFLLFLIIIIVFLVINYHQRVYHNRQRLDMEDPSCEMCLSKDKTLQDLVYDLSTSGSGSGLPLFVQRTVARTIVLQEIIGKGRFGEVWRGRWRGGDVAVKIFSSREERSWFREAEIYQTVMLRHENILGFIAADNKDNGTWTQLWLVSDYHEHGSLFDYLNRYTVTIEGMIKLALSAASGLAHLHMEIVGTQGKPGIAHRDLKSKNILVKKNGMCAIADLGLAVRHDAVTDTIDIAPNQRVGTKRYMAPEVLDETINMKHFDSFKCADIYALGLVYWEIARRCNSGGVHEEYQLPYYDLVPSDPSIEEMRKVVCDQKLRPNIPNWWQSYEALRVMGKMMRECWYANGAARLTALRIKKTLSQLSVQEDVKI

BMPR1B = BMPR1B (Homo sapiens, UniProt O00238); conditions: cited from earlier work
JAK1(JH2) = biological target: T4, JAK1(JH2) (Homo sapiens, UniProt P23458); conditions: cited from earlier work
T4 construct: JAK1(JH2)

CDC42BPG/DMPK2 = CDC42BPG/DMPK2 (Homo sapiens, UniProt Q6DT37); conditions: cited from earlier work
Sequence of CDC42BPG/DMPK2 (Q6DT37 whole entry): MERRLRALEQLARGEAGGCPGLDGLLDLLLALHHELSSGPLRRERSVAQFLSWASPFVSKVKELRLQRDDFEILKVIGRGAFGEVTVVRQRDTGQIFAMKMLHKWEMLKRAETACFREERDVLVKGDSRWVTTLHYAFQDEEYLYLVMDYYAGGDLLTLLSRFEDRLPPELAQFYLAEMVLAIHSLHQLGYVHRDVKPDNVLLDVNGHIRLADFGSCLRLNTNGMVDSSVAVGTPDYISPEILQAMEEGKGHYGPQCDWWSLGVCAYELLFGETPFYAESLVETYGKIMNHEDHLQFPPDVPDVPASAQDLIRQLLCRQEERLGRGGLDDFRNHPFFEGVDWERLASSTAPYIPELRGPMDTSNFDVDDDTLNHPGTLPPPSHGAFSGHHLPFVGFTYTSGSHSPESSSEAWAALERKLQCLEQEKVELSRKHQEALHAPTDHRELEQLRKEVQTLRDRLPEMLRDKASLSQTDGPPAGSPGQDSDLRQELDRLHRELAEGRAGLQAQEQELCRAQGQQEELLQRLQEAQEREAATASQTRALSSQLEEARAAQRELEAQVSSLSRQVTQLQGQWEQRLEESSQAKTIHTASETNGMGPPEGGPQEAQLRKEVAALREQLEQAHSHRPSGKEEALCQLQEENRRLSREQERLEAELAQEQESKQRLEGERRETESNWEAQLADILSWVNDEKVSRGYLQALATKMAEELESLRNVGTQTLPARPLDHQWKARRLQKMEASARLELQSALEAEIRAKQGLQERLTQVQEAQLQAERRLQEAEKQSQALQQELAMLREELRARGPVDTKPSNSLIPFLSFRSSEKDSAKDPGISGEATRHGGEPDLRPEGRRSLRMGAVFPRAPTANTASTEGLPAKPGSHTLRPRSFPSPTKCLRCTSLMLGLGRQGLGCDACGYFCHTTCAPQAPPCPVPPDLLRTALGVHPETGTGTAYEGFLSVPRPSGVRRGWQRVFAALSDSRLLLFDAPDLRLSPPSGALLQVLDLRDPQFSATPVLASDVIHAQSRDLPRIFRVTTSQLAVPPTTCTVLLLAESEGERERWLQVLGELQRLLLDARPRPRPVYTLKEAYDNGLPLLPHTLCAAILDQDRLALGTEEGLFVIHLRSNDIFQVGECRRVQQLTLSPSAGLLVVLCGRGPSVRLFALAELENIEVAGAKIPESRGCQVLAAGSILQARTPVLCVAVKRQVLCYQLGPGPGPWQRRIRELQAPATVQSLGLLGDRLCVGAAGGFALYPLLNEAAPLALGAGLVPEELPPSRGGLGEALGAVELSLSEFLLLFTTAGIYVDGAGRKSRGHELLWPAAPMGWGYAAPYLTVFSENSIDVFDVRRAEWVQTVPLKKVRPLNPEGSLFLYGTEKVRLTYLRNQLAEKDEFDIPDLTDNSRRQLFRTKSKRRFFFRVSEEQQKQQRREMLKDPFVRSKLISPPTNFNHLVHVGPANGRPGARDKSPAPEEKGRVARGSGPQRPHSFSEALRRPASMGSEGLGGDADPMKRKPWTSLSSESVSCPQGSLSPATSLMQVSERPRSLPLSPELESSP

Sequence of CSNK1D (P48730 whole entry): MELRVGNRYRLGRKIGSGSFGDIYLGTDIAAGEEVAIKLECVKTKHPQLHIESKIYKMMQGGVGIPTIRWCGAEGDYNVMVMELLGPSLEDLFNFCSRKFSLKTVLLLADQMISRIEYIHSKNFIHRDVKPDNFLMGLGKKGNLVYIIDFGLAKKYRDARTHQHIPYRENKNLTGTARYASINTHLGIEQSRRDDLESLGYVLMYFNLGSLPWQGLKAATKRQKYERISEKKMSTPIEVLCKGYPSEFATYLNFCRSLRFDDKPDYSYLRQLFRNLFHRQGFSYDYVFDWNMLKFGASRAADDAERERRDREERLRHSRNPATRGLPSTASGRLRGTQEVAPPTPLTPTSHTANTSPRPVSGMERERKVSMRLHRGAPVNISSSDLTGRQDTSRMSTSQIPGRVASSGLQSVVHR
Sequence of PIKFYVE (Q9Y2I7 whole entry): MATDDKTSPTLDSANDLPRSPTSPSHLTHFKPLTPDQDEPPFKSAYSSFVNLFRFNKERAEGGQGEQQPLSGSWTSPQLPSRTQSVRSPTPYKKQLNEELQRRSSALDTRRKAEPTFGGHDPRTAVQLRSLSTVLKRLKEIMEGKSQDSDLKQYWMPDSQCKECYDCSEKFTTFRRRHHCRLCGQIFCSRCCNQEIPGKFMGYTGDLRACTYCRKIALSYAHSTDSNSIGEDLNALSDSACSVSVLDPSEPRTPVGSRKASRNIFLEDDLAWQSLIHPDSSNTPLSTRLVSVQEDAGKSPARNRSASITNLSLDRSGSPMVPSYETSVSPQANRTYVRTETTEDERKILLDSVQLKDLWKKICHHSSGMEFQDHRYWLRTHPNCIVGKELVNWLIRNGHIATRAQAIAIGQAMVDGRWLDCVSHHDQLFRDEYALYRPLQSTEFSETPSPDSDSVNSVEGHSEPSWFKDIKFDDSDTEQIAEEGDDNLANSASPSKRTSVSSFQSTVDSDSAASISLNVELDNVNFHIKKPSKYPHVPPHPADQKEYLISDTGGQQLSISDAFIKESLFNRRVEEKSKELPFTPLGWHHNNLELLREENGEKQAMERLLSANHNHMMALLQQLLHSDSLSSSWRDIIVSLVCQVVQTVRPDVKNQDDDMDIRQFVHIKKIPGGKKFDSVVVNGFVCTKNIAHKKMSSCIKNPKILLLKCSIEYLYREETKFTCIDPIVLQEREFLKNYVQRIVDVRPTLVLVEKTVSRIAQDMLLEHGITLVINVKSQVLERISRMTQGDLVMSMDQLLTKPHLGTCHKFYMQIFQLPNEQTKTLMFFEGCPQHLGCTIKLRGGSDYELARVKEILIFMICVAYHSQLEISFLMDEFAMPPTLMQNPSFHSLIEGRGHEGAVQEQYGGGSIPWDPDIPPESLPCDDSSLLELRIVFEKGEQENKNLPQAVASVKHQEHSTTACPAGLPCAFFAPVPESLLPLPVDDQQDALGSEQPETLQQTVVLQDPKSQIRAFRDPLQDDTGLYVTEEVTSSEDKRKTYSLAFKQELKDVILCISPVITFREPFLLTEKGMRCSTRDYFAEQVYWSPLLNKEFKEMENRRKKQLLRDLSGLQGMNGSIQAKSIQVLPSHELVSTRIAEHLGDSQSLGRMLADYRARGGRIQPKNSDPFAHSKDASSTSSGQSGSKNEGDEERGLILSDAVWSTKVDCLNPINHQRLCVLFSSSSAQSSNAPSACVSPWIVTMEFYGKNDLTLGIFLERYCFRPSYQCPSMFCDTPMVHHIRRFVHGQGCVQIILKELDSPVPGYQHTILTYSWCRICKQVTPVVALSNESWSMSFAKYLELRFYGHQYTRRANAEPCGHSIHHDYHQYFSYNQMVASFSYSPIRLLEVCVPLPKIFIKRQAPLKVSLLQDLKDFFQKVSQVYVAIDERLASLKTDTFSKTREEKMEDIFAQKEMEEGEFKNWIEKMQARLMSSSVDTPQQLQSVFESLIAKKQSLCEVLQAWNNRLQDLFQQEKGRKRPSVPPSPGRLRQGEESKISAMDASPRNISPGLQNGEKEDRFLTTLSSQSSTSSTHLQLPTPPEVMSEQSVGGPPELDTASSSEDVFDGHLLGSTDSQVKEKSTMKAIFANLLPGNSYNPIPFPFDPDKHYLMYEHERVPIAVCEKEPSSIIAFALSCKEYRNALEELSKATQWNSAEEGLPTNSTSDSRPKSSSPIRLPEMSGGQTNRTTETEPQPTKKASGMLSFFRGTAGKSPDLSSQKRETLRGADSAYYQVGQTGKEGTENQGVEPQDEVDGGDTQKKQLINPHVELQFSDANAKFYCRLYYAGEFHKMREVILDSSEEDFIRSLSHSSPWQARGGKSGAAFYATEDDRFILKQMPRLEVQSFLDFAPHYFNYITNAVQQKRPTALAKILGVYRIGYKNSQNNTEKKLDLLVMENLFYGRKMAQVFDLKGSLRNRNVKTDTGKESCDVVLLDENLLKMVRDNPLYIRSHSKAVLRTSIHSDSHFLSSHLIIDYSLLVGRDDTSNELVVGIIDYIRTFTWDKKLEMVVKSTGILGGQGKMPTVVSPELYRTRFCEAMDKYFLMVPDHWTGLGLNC
Sequence of BMPR1B (O00238 14-502): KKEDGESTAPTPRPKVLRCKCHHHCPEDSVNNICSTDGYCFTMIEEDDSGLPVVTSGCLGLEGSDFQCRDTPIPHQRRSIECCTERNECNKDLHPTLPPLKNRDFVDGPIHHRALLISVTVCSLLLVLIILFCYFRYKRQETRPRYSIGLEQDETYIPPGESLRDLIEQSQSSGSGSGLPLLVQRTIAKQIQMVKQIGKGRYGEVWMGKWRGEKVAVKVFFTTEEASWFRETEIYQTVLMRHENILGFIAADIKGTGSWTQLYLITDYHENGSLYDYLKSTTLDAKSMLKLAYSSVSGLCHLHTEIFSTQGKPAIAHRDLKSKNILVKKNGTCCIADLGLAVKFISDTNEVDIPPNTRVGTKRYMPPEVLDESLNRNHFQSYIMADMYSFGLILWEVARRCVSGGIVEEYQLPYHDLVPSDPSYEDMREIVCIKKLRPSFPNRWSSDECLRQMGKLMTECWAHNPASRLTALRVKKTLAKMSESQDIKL
T4 sequence (P23458 583-855 limits assumed): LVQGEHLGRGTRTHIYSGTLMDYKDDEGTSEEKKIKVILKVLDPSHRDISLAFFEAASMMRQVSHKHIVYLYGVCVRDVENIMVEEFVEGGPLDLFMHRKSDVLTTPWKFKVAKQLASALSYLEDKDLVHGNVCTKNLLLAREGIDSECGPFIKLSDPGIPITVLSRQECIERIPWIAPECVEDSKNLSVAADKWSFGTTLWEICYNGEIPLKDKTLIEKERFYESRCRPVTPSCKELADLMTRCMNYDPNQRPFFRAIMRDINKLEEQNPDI

Row | Compound | KINOMEscan binding CIT (CIT) [%] | TFE3 % (endogenous TFE3) [%] | nTFE3 % (endogenous TFE3; 24 h) [%] | KINOMEscan binding PRKD3 (PRKD3) [%] | TFEB % (endogenous TFEB) [%] | KINOMEscan binding PIKFYVE (PIKFYVE) [%] | KINOMEscan binding PRKD1 (PRKD1) [%] | DQ Intensity (SH-SY5Y cells) | DQ Spot (SH-SY5Y cells) | KINOMEscan binding CSNK1D (CSNK1D) [%] | KINOMEscan binding ACVR1B (ACVR1B) [%] | KINOMEscan binding BMPR1B (BMPR1B) [%] | KINOMEscan binding JAK1(JH2) (JAK1(JH2)) [%] | KINOMEscan binding CDC42BPG/DMPK2 (CDC42BPG/DMPK2) [%] | TFE3 translocation (in words) (endogenous TFE3; 24 h treatment) | TFEB translocation (in words) (endogenous TFEB; 24 h treatment) | Summary (endogenous TFE3) | further results
1 | Cc1ccc(-c2nc(Nc3ccncc3)c3ccccc3n2)s1 [GSK189015] | 42 | 15.06 | 15 | 22 | 4.14 | 63 | 18 | 116.90 | 105.30 | 33 | 0 | 0 | 38 | 13 |  |  |  | 
2 | COc1ccc2nc(-c3cccc(C)n3)nc(Nc3ccncc3)c2c1 [GSK204919] | 73 | 7.07 | 7 | 100 | 4.22 | 81 | 92.4 | 144.99 | 139.38 | 49 |  | 0 | 80 | 91.1 | did not show TFEB and TFE3 activation | did not show TFEB and TFE3 activation |  | 
3 | Cc1cccc(-c2cc(Nc3ccncc3)c3ccccc3n2)n1 [GSK223675] | 23 | 9.28 | 9.2 | 100 | 7.90 | 23 | 91.1 | 136.99 | 120.77 | 14 | 88 | 0 | 5 | 7 |  |  |  | 
4 | Cc1cccc(-c2nc(C)cc(Nc3ccncc3)n2)n1 [GSK257997] | 23 | 9.74 | 9.7 | 85 | 2.98 | 27 | 78 | 78.64 | 86.70 | 43 | 78 | 0 | 0 | 89 | did not show TFEB and TFE3 activation | did not show TFEB and TFE3 activation |  | 
5 | Cc1cccc(-c2nc(Nc3ccncc3)c3ccccc3n2)n1 [GW855857] | 91.1 | 15.51 | 15.5 | 69 | 6.50 | 57 | 86 | 79.80 | 95.73 | 73 | 94.3 | 29 | 74 | 76 |  |  |  | 
6 | Cc1cccc(-c2nc(Nc3ccc4nn[nH]c4c3)c3ccccc3n2)n1 [GW867587] | 15 | 12.03 | 12 | 66 | 14.22 | 13 | 94.2 | 114.16 | 102.41 | 4 | 0 | 0 | 52 | 0 |  |  |  | 
7 | Cc1cccc(-c2nc(Nc3ccc4ncsc4c3)c3ccccc3n2)n1 [NK140] |  |  |  |  |  |  |  |  |  |  |  |  |  |  | modest TFEB and TFE3 translocation | modest TFEB and TFE3 translocation | Original | pEC50 (endogenous TFE3; Homo sapiens, 24 h treatment, estimated, read-out: Cellular EC50 against TFE3): 6.19; EC50 (endogenous TFE3; Homo sapiens, 24 h, µM): 0.64 µM; TFE3 translocation (in words) (endogenous TFE3; 48 h treatment): induced; also recorded: elevated TFEB and TFE3 translocation; Best-Fit Values Span (endogenous TFE3; 24 h): 37.55; TFEB translocation (in words) (endogenous TFEB; 48 h treatment): induced; also recorded: elevated TFEB and TFE3 translocation; DQ Red BSA fluorescence intensity (in words) (SH-SY5Y cells; SH-SY5Y, 24 h treatment): no increases in DQ Red BSA intensity; DQ Red BSA intensity (in words) (SH-SY5Y cells; SH-SY5Y, 48 h treatment): additional increase in DQ Red BSA intensity
8 | Cc1cccc(-c2nc(Nc3ccc4nn(C)cc4c3)c3ccccc3n2)n1 [NK167] |  |  |  |  |  |  |  |  |  |  |  |  |  |  |  |  | Weaker, Strong OT activity | EC50 (endogenous TFE3; 24 h, second EC50 of biphasic/bell-shaped fit or OT (off-target) activity, unit inferred): 1.05 µM; EC50 (endogenous TFE3; 24 h, µM): 1.04 µM
9 | Cc1cccc(-c2nc(Nc3ccncc3)c3ccccc3n2)n1 [NK215] |  |  |  |  |  |  |  |  |  |  |  |  |  |  |  |  | Weaker | KINOMEscan CIT (CIT; CIT, Published KINOMEscan, ref original PKIS2 published data): 91.1; pEC50 (endogenous TFE3; Homo sapiens, 24 h, read-out: Best-Fit Values EC50): 5.69; Best-Fit Values Span (endogenous TFE3; 24 h): 18.17; KINOMEscan PRKD3 (PRKD3; kinase PRKD3, Published KINOMEscan, ref original PKIS2 published data): 69; KINOMEscan PIKFYVE (PIKFYVE; kinase PIKFYVE, Published KINOMEscan, ref original PKIS2 published data): 57; KINOMEscan PRKD1 (PRKD1; PRKD1, Published KINOMEscan, ref original PKIS2 published data): 86; KINOMEscan CSNK1D (CSNK1D; CSNK1D, Published KINOMEscan, ref original PKIS2 published data): 73; KINOMEscan ACVR1B (ACVR1B): 94.3; KINOMEscan BMPR1B (BMPR1B; BMPR1B, Published KINOMEscan, ref original PKIS2 published data): 29; KINOMEscan JAK1(JH2domain-pseudokinase) (JAK1(JH2); JAK1(JH2domain-pseudokinase), Published KINOMEscan, ref original PKIS2 published data): 74; KINOMEscan CDC42BPG/DMPK2 (CDC42BPG/DMPK2): 76

Reference: article PMC9851200, “Multiparameter phenotypic screening for endogenous TFEB and TFE3 translocation identifies novel chemical series modulating lysosome function” (Autophagy, 2022)
